These results are taken from patent US20110293559A1, “CATABOLIC AGENTS” (priority 2008, published 2011).

Where two headings read alike, the source gives them in different places.

The test system of one assay is MMP13 gene expression. The assay can be described thus: qPCR MMP13 gene expression in cartilage explants. In kind it is cell-based. On the procedure: (§1) The medium was removed after the nominated time and washed once with DMEM then replaced with DMEM medium containing 50 μg/ml ascorbate, 10 mM HEPES, gentamycin and supplemented with 1× insulin-transferrin-selenium (ITS; Sigma). For qPCR studies the explants were first allowed to equilibriate in serum containing medium for 3 days, then washed 3 times in serum-free DMEM before the treatment as described above. For long term culture following 2 hour cytokine treatment explants were treated immediately following their excision from the joint, then cultured for 4 weeks in serum-free DMEM containing ITS, ascorbate, HEPES and gentamycin. The culture medium was changes 3 times a week.
Quantitative polymerase chain reaction (qPCR) using the fluorescent dye SYBR Green (Eurogentec, Belgium) was used to determine the absolute expression levels of ADAMTS4 and MMP-13 between explants. Real-time PCR reactions were carried out in 25 μl volumes in a 96-well plate (Applied Biosystems™) containing 1× buffer (10×), 3.5 mM MgCl2, 200 μM dNTPs, 0.3 μM of sense and antisense primers, 0.025 U enzyme and 1:66000 SYBR GreenI®. All reactions were made using gPCR™ Core Kit for SYBR Green I® (Eurogentec). At the end of each reaction, the cycle threshold (CT) was manually setup at the level that reflected the best kinetic PCR parameters, and melting curves were acquired and analysed. Absolute values for the gene of interest were calculated from standard curves generated using serially diluted plasmid cloned and sequence verified template (ng DNA) and were normalized to the housekeeping gene 18S rRNA.

The subject of assay [1] is immature articular cartilage explants. The assay can be described thus: Disc-core cartilage explant integration culture with histology. The format is cell-based.
Description: as §1, with “Six millimetre diameter cartilage explants from immature articular cartilage containing 3 mm diameter inner cores, both created using punch biopsy tools (Steifel), were placed in Dulbecco's modified Eagles medium (DMEM) culture medium containing various concentrations of interleukin-1β or tumour necrosis factor α (TNFα; Peprotech), or, the culture medium without cytokine as a control. The medium” for “The medium”
Four week core and disc cultures were fixed with neutral-buffered formyl-saline and left overnight at 4 C. The explants were then processed for wax embedding. Ten micron sections were cut using a microtome, and sections dewaxed and rehydrated in a descending series of alcohols. Sections were stained with haemotoxylin (1 minute), washed in water and then stained with Safranin-O (2 minutes) washed briefly in water and then dehydrated, dipped in xylene and then mounted in DPX liquid under coverslips.

For assay [2] the test system is unchanged. The assay can be described thus: Mechanical push-out test of disc/ring interface. The conditions noted are these: FIG. 2, 3 weeks in culture, n=4. In kind it is cell-based. The text has this: Six millimetre diameter cartilage explants from immature articular cartilage containing 3 mm diameter inner cores, both created using punch biopsy tools (Steifel), were placed in Dulbecco's modified Eagles medium (DMEM) culture medium containing various concentrations of interleukin-1β or tumour necrosis factor α (TNFα; Peprotech), or, the culture medium without cytokine as a control. The medium was removed after the nominated time and washed once with DMEM then replaced with DMEM medium containing 50 μg/ml ascorbate, 10 mM HEPES, gentamycin and supplemented with 1× insulin-transferrin-selenium (ITS; Sigma). For qPCR studies the explants were first allowed to equilibriate in serum containing medium for 3 days, then washed 3 times in serum-free DMEM before the treatment as described above. […]
Adhesive properties of the disc/ring interface after 3-weeks in culture were assessed using a push-out test (n=4). Thickness of the sample was measured using calipers. […] A computer activated micro-stepper controlled the displacement of the push-out rod (0.05 mm/min), whilst a load cell (100N) coupled to the rod measured the push-out force. The adhesive strength was calculated from the maximum force measured at failure per unit of interfacial area.

The next assay deals with cartilage. The conditions noted are these: in vitro, cited from earlier work.

Take `CC1=C(/C=C/C(C)=C/C=C/C(C)=C/C(=O)O)C(C)(C)CCC1` [Retinoic acid, reference compound]: the “increase in MMP13 gene expression” value in the assay on MMP13 gene expression (100 μM retinoic acid, 2 hour incubation, P<0.03, n=3 (FIG. 6)) was “approximately 3 fold”.

Regarding “IL1β: catabolic cytokine, member of the interleukin-1 superfamily”, in assay [1] (10 ng/ml for 24 hours, unsupplemented culture medium, cultured for a further 2 weeks (FIG. 1A)), the “integration between disc and core cartilages” value is given as “enhances integration”. Moreover, in assay [1] (25 ng/ml IL1β for 2 hours, then 4 weeks culture, high power histology (FIG. 9)), the “chondrocyte migration in the interfacial matrix” value is “presence of migrating chondrocytes within the interfacial matrix”. In addition, in assay [1] (25 ng/ml IL1β for 2 hours, then 4 weeks serum-free culture with ITS (FIG. 8)), the “integration, assessed qualitatively through retention of matrix integrity (safranin-O histology)” value is “best achieved”. In addition, the “force to push out the explant from the disc versus untreated explants” value in assay [2] is listed as “almost six times more force”. Also, the cartilage integration result is recorded as “not consistent” in the assay on cartilage (1 pg/ml or 100 pg/ml, 14 days) and “enhanced cartilage integration” in the assay on cartilage (10 pg/ml, incubation of the cartilage for 14 days). For the same compound, the “increase in MMP13 gene expression” value in the assay on MMP13 gene expression (25 ng/ml IL1β, 2 hours, P>0.116, n=3 (FIG. 3)) was determined as 1.64 fold. In addition, in the assay with MMP13 gene expression (12.5-100 ng/ml for 2 hours), the “MMP13 gene expression, effect of increasing concentrations” value was “increase in MMP13 gene expression”.
